# Assay results published in ChEMBL document CHEMBL4732176, “Synthesis and biological evaluation of novel N-substituted benzamides as anti-migration agents for treatment of osteosarcoma” (Eur J Med Chem, 2021).
# pIC50: −log10 of the molar value. The source made the active and inactive calls. No cut-off for these calls is given here.
# Columns and labels:
# [1] = Cytotoxicity against human MIHA cells assessed as reduction in cell viability at 40 uM incubated for 48 hrs by MTT assay; type: cell-based
# [2] = Cytotoxicity against human MIHA cells assessed as reduction in cell viability incubated for 48 hrs by MTT assay; type: cell-based
# MG-63 = assay: Cytotoxicity against human MG-63 cells assessed as reduction in cell viability incubated for 48 hrs by MTT assay; type: functional, cell-based; conditions: MG-63, 48 h
# U2OS = assay: Cytotoxicity against human U2OS cells assessed as reduction in cell viability incubated for 48 hrs by MTT assay; type: functional, cell-based
# [3] = biological target: Focal adhesion kinase 1 (Homo sapiens) (UniProt Q05397); assay: Inhibition of FAK phosphorylation in human MG-63 cells at 5 to 20 uM incubated for 48 hrs by Western blot analysis; type: cell-based; conditions: dose 5-20 µM
# [4] = biological target: Focal adhesion kinase 1 (Homo sapiens) (UniProt Q05397); assay: Inhibition of FAK phosphorylation in human U2OS cells at 5 to 20 uM incubated for 48 hrs by Western blot analysis; type: cell-based; conditions: dose 5-20 µM
# Sequence of Focal adhesion kinase 1 (Homo sapiens) (Q05397 2-1052 limits assumed): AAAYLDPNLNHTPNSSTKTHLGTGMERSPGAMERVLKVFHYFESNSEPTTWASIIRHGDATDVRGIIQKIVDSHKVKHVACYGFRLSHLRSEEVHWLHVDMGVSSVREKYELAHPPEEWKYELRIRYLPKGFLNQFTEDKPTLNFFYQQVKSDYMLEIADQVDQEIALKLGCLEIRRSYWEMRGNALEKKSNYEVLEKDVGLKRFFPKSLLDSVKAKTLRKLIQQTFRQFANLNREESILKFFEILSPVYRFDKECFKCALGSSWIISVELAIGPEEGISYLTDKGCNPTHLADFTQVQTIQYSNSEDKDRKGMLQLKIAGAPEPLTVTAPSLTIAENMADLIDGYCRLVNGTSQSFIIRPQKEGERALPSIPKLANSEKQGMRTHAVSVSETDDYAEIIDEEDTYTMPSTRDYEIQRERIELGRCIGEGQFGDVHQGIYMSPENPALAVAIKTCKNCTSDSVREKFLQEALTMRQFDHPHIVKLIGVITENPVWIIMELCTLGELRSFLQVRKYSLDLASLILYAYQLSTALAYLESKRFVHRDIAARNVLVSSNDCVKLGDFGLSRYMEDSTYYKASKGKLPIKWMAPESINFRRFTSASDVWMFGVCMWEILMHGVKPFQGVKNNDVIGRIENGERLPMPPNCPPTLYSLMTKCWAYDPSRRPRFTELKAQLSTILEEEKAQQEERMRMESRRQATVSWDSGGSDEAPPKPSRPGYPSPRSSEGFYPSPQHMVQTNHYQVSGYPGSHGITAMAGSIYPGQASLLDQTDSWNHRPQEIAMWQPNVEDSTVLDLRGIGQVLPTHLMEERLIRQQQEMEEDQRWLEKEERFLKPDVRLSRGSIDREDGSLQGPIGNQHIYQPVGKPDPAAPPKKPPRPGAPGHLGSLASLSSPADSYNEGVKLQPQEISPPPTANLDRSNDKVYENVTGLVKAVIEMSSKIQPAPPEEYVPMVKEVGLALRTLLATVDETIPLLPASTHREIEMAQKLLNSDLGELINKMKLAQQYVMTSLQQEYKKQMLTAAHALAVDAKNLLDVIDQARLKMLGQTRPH
SMILES,Activity [1],other results
COC(=O)CCn1cc2c(NC(=O)c3cc(Cl)ccc3O)cccc2n1,Non-Toxic,–
O=C(Nc1ccc2[nH]ncc2c1)c1cc(Cl)ccc1O,Non-Toxic,–
O=C(Nc1ccc2[nH]ccc2c1)c1cc(Cl)ccc1O,Non-Toxic,–
O=C(Nc1cccc2cc[nH]c12)c1cc(Cl)ccc1O,Non-Toxic,–
O=C(Nc1cccc2c1cnn2CCO)c1cc(Cl)ccc1O,Non-Toxic,–
O=C(Nc1cccc2c1cnn2C(=O)N1CCOCC1)c1cc(Cl)ccc1O,Non-Toxic,–
CN(C)C(=O)Cn1cc2c(NC(=O)c3cc(Cl)ccc3O)cccc2n1,Non-Toxic,–
O=C(Nc1ccc2cn[nH]c2c1)c1cc(Cl)ccc1O,Non-Toxic,–
O=C(Nc1cc(C(F)(F)F)cc(C(F)(F)F)c1)c1cc(Cl)ccc1O [IMD-0354],Non-Toxic,pIC50 [2]: < 4.00; pIC50 (MG-63): 4.31; pIC50 (U2OS): 4.29
O=C(Nc1ccc2c(cnn2C(=O)c2ccccc2)c1)c1cc(Cl)ccc1O,–,inhibition [3]: Active; inhibition [4]: Active
O=C(Nc1cccc2cn[nH]c12)c1cc(Cl)ccc1O,Non-Toxic,–
O=C(Nc1cccc2c1cnn2C(=O)c1c(Cl)cccc1Cl)c1cc(Cl)ccc1O,Non-Toxic,–
O=C(O)CCn1ncc2c(NC(=O)c3cc(Cl)ccc3O)cccc21,Non-Toxic,–
CN(C)C(=O)Cn1ncc2c(NC(=O)c3cc(Cl)ccc3O)cccc21,Non-Toxic,–
O=C(Nc1cccc2nn(CCO)cc12)c1cc(Cl)ccc1O,Non-Toxic,–
O=C(O)CCn1cc2c(NC(=O)c3cc(Cl)ccc3O)cccc2n1,Non-Toxic,–
COc1ccc(NC(=O)n2ncc3c(NC(=O)c4cc(Cl)ccc4O)cccc32)cc1,Non-Toxic,–
COC(=O)CCn1ncc2c(NC(=O)c3cc(Cl)ccc3O)cccc21,Non-Toxic,–
CN(C)c1ccc(C(=O)n2ncc3c(NC(=O)c4cc(Cl)ccc4O)cccc32)cc1,Non-Toxic,–
CN(C)C(=O)n1ncc2c(NC(=O)c3cc(Cl)ccc3O)cccc21,Non-Toxic,–
O=C(Nc1cccc2[nH]ncc12)c1cc(Cl)ccc1O,Non-Toxic,–
O=C(Nc1cccc2[nH]ccc12)c1cc(Cl)ccc1O,Non-Toxic,–
